Results from patent US12319648B2, “Fluorinated phenylacetic acid derivatives in a weed control method” (SYNGENTA CROP PROTECTION AG, priority 2019, dated 2025).

How the values were obtained:
Format in all cases: in vivo
[1] = tested on: Amaranthus retoflexus (AMARE); assay: Post-emergence herbicidal glasshouse test; settings: post-emergence, 250 g/ha, 13 days after application
Protocol: (§1) Seeds of a variety of test species are shown in standard soil in pots Amaranthus retoflexus (AMARE), Ipomoea hederacea (IPOHE), Solanum nigrum (SOLNI), Lolium perenne (LOLPE). Echinochloa crus-galli (ECHCG), Setaria faberi (SETFA)). After cultivation for one day (pre-emergence) or after 8 days cultivation (post-emergence) under controlled conditions in a glasshouse (at 24/16° C., day/night; 14 hours light; 65% humidity), the plants are sprayed with an aqueous spray solution derived from the formulation of the technical active ingredient in acetone/water (50:50) solution containing 0.5% Tween 20 (polyoxyethylene sorbitan monolaurate, CAS RN 9005-64-5). Compounds are applied at 250 g/ha unless otherwise stated. The test plants are then grown in a glasshouse under controlled conditions in a glasshouse (at 24/16° C., day/night; 14 hours light; 65% humidity) and watered twice daily. After 13 days for pre and post-emergence, the test is evaluated for the percentage damage caused to the plant. The biological activities are shown in the following table on a five-point scale (5=81-100%; 4=61-80%; 3=41-60%; 2=21-40%; 1=0-20%).
(§2) Using the experimental conditions outlined above, a further test is conducted to compare the herbicidal properties of the difluro containing compound (1.014) with a representative compound (C1) referred to in GB901553. The compounds are applied at 1000 g/ha and 500 g/ha. The test is evaluated for the percentage damage caused to the plant (% phytotoxicity).

[2] = tested on: Echinochloa crus-galli (ECHCG); assay: Post-emergence herbicidal glasshouse test; settings: post-emergence, 250 g/ha, 13 days after application
Protocol: as §1, §2

[3] = tested on: Ipomoea hederacea (IPOHE); assay: Post-emergence herbicidal glasshouse test; settings: post-emergence, 250 g/ha, 13 days after application
Protocol: as §1, §2

Lolium perenne (LOLPE) [4] = assay: Post-emergence herbicidal glasshouse test; settings: post-emergence, 250 g/ha, 13 days after application
Protocol: as §1, §2

Setaria faberi (SETFA) [5] = assay: Post-emergence herbicidal glasshouse test; settings: post-emergence, 250 g/ha, 13 days after application
Protocol: as §1, §2

Solanum nigrum (SOLNI) [6] = assay: Post-emergence herbicidal glasshouse test; settings: post-emergence, 250 g/ha, 13 days after application
Protocol: as §1, §2

[7] = tested on: Amaranthus retoflexus (AMARE); assay: Pre-emergence herbicidal glasshouse test; settings: pre-emergence, 250 g/ha, 13 days after application
Protocol: as §1, §2

[8] = tested on: Echinochloa crus-galli (ECHCG); assay: Pre-emergence herbicidal glasshouse test; settings: pre-emergence, 250 g/ha, 13 days after application
Protocol: as §1, §2

[9] = tested on: Ipomoea hederacea (IPOHE); assay: Pre-emergence herbicidal glasshouse test; settings: pre-emergence, 250 g/ha, 13 days after application
Protocol: as §1, §2

Lolium perenne (LOLPE) [10] = assay: Pre-emergence herbicidal glasshouse test; settings: pre-emergence, 250 g/ha, 13 days after application
Protocol: as §1, §2

Setaria faberi (SETFA) [11] = assay: Pre-emergence herbicidal glasshouse test; settings: pre-emergence, 250 g/ha, 13 days after application
Protocol: as §1, §2

Solanum nigrum (SOLNI) [12] = assay: Pre-emergence herbicidal glasshouse test; settings: pre-emergence, 250 g/ha, 13 days after application
Protocol: as §1, §2

For `O=C(O)C(F)(F)c1c(Cl)ccc(Cl)c1Cl` [Compound 1.001], the “percentage damage caused to the plant, five-point scale, AMARE” value (shortened to “percentage damage caused … AMARE”) [1] was 5 (5=81-100%), the “percentage damage caused to the plant, five-point scale, ECHCG” value (shortened to “percentage damage caused … ECHCG”) [2] was 1 (1=0-20%) and the “percentage damage caused to the plant, five-point scale, IPOHE” value (shortened to “percentage damage caused … IPOHE”) [3] was 4 (4=61-80%). The “percentage damage caused to the plant, five-point scale, LOLPE” value (shortened to “percentage damage caused … LOLPE”) (Lolium perenne (LOLPE) [4]) was 1 (1=0-20%), the “percentage damage caused to the plant, five-point scale, SETFA” value (shortened to “percentage damage caused … SETFA”) (Setaria faberi (SETFA) [5]) was 3 (3=41-60%) and the “percentage damage caused to the plant, five-point scale, SOLNI” value (shortened to “percentage damage caused … SOLNI”) (Solanum nigrum (SOLNI) [6]) was 4 (4=61-80%). For the same molecule, the “percentage damage caused … AMARE” value [7] was 5 (5=81-100%), the “percentage damage caused … ECHCG” value [8] was 1 (1=0-20%) and the “percentage damage caused … IPOHE” value [9] was 3 (3=41-60%). The “percentage damage caused … LOLPE” value (Lolium perenne (LOLPE) [10]) was 1 (1=0-20%), the “percentage damage caused … SETFA” value (Setaria faberi (SETFA) [11]) was 1 (1=0-20%) and the “percentage damage caused … SOLNI” value (Solanum nigrum (SOLNI) [12]) was 1 (1=0-20%).
With `COC(=O)C(F)(F)c1c(Cl)ccc(Cl)c1Cl` [Compound 1.002] the “percentage damage caused … AMARE” value [1] was 4 (4=61-80%), the “percentage damage caused … ECHCG” value [2] was 1 (1=0-20%) and the “percentage damage caused … IPOHE” value [3] was 2 (2=21-40%). For the same molecule, the “percentage damage caused … LOLPE” value (Lolium perenne (LOLPE) [4]) was 1 (1=0-20%), the “percentage damage caused … SETFA” value (Setaria faberi (SETFA) [5]) was 1 (1=0-20%) and the “percentage damage caused … SOLNI” value (Solanum nigrum (SOLNI) [6]) was 4 (4=61-80%). For the same molecule, the “percentage damage caused … AMARE” value [7] was 4 (4=61-80%), the “percentage damage caused … ECHCG” value [8] was 1 (1=0-20%) and the “percentage damage caused … IPOHE” value [9] was 1 (1=0-20%). For the same molecule, the “percentage damage caused … LOLPE” value (Lolium perenne (LOLPE) [10]) was 1 (1=0-20%), the “percentage damage caused … SETFA” value (Setaria faberi (SETFA) [11]) was 1 (1=0-20%) and the “percentage damage caused … SOLNI” value (Solanum nigrum (SOLNI) [12]) was 1 (1=0-20%).
For `COC(=O)C(F)(F)c1ccc(Cl)cc1Cl` [Compound 1.003], the “percentage damage caused … AMARE” value [1] was 3 (3=41-60%), the “percentage damage caused … ECHCG” value [2] was 1 (1=0-20%) and the “percentage damage caused … IPOHE” value [3] was 3 (3=41-60%). For the same molecule, the “percentage damage caused … LOLPE” value (Lolium perenne (LOLPE) [4]) was 1 (1=0-20%), the “percentage damage caused … SETFA” value (Setaria faberi (SETFA) [5]) was 1 (1=0-20%) and the “percentage damage caused … SOLNI” value (Solanum nigrum (SOLNI) [6]) was 3 (3=41-60%). For the same molecule, the “percentage damage caused … AMARE” value [7] was 4 (4=61-80%), the “percentage damage caused … ECHCG” value [8] was 1 (1=0-20%) and the “percentage damage caused … IPOHE” value [9] was 3 (3=41-60%). For the same molecule, the “percentage damage caused … LOLPE” value (Lolium perenne (LOLPE) [10]) was 1 (1=0-20%), the “percentage damage caused … SETFA” value (Setaria faberi (SETFA) [11]) was 1 (1=0-20%) and the “percentage damage caused … SOLNI” value (Solanum nigrum (SOLNI) [12]) was 2 (2=21-40%).
For `O=C(O)C(F)(F)c1ccc(Cl)cc1Cl` [Compound 1.004], the “percentage damage caused … AMARE” value [1] was 4 (4=61-80%), the “percentage damage caused … ECHCG” value [2] was 1 (1=0-20%) and the “percentage damage caused … IPOHE” value [3] was 4 (4=61-80%). The “percentage damage caused … LOLPE” value (Lolium perenne (LOLPE) [4]) was 1 (1=0-20%), the “percentage damage caused … SETFA” value (Setaria faberi (SETFA) [5]) was 1 (1=0-20%) and the “percentage damage caused … SOLNI” value (Solanum nigrum (SOLNI) [6]) was 4 (4=61-80%). The “percentage damage caused … AMARE” value [7] was 4 (4=61-80%), the “percentage damage caused … ECHCG” value [8] was 1 (1=0-20%) and the “percentage damage caused … IPOHE” value [9] was 4 (4=61-80%). The “percentage damage caused … LOLPE” value (Lolium perenne (LOLPE) [10]) was 1 (1=0-20%), the “percentage damage caused … SETFA” value (Setaria faberi (SETFA) [11]) was 1 (1=0-20%) and the “percentage damage caused … SOLNI” value (Solanum nigrum (SOLNI) [12]) was 3 (3=41-60%).
